Reference: patent publication US6706880B2 (Research Triangle Institute, priority 1990, dated 2004)
Counter-ions that a name gives are not always drawn. Like-named read-outs stand apart in the source and are kept apart here.

What was measured:
dopamine transporter [1] = target: dopamine transporter (UniProt P23977); assay type: binding
Description: (§1) Illustrative in vitro assays for binding are described in Boja et al Ann. NY Acad. Sci. 654:282-291 (1992), which is incorporated herein by reference in its entirety. […] Alternatively, the compounds may be analyzed by their ability to inhibit reuptake of a labelled neurotransmitter in a sample, in particular, in synaptosomes.

dopamine transporter [2] = assay type: binding; conditions: ratio of IC50 values, Table II
Description: as §1

serotonin transporter = target: T1, serotonin transporter (Rattus norvegicus, UniProt P31652); test: Inhibition of [3H]paroxetine radioligand binding at the serotonin transporter
T1 construct: from tissue
T1 sequence (P31652 whole entry): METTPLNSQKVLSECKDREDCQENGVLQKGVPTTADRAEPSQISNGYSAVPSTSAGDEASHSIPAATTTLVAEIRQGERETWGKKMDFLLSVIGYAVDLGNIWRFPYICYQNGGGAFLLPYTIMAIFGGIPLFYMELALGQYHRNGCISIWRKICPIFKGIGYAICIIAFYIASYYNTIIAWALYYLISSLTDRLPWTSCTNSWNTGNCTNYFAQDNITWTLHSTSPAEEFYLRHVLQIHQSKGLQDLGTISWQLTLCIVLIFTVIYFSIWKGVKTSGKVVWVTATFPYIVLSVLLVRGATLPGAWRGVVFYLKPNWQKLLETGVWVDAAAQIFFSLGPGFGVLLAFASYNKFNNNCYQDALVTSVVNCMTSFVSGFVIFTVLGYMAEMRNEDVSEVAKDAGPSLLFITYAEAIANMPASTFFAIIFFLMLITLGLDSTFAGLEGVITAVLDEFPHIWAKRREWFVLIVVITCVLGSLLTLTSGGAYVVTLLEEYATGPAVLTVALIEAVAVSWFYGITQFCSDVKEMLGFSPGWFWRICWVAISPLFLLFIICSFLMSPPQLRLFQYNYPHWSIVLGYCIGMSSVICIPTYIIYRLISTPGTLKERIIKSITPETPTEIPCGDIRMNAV
Description: as §1

[3] = target: norepinephrine transporter (UniProt Q9WTR4); test: Inhibition of [3H]nisoxetine radioligand binding at the norepinephrine transporter
Description: as §1

[4] = read-out: DA IC50 for inhibition of radioligand binding, DA=[3H]WIN 35,428
[5] = 5-HT IC50 for inhibition of radioligand binding, 5-HT=[3H] paroxetine
[6] = read-out: NEN IC50 for inhibition of radioligand binding, NEN=[3H] nisoxetine
[7] = 5-HT=[3H] paroxetine, read-out: 5-HT IC50 for inhibition of radioligand binding
[8] = read-out: IC50 DA [3H]-WIN 35,428, Table IV
[9] = IC50 5-HT [3H]-paroxetine, Table IV
[10] = read-out: IC50 NE [3H]-nisoxetine, Table IV

Row | SMILES | IC50 (dopamine transporter [1]; [4]) | IC50 (serotonin transporter; [5]) | IC50 [3, 6] | other results
1 | Cc1ccc([C@H]2C[C@@H]3CC[C@H]([C@H]2c2cc(-c4ccccc4)no2)N3C)cc1 [RTI-4229-176, 3β-(4-Methylphenyl)-2β-(3-phenylisoxazol-5-yl)tropane Hydrochloride] | 1.58 nM | 5110 nM | 398 nM | IC50 (dopamine transporter [1]; read-out: IC50 DA [3H]-WIN 35,428, Table II): 1.58 nM; 5-HT/DA Ratio (dopamine transporter [2]): 3234; NE/DA Ratio (dopamine transporter [2]): 251; IC50 (serotonin transporter; IC50 5-HT [3H]-paroxatine, Table II): 5110 nM; IC50 ([3]; read-out: IC50 NE [3H]-nisoxetine, Table II): 398 nM
2 | CN1C2CCC1C(C(=O)Oc1ccccc1)C(c1ccc([N+](=O)[O-])cc1)C2 (centres unmarked) [RTI-4229-277] | 5.94 nM | 2910 nM | 5700 nM | –
3 | C=Cc1ccc(C2CC3CCC(N3)C2C(=O)OC)cc1 (centres unmarked) [RTI-4229-309] | 1.73 nM | – | 14.9 nM | IC50 (serotonin transporter; [7]): 2.25 nM
4 | CN1C2CCC1C(C(=O)N1CCCCOCC1)C(c1ccc(Cl)cc1)C2 (centres unmarked) [RTI-4229-214] | 2.9 nM | 88800 nM | 8550 nM | –
5 | CN1C2CCC1C(c1nc(-c3ccc(Cl)cc3)no1)C(c1ccc(Cl)cc1)C2 (centres unmarked) [RTI-4229-143] | 4.1 nM | 404 nM | 4070 nM | –
6 | C=C(C)c1ccc(C2CC3CCC(C2C(=O)OC)N3C)cc1 (centres unmarked) [RTI-4229-283] | 14.3 nM | – | 3130 nM | IC50 (serotonin transporter; [7]): 3.13 nM
7 | COC(=O)C1C(c2ccc(C)c(I)c2)CC2CCC1N2C (centres unmarked) [RTI-4229-280] | 3.12 nM | 6.81 nM | 484 nM | –
8 | COC(=O)C1C(c2ccc(I)cc2)CC2CCC1N2C (centres unmarked) [RTI-4229-55] | 1.26 nM | – | 36 nM | IC50 (serotonin transporter; [7]): 4.21 nM
9 | COC(=O)C1C(c2ccc(I)cc2)CC2CCC1N2C (centres unmarked) [RTI-4229-352] | 2.86 nM | – | 52.4 nM | IC50 (serotonin transporter; [7]): 64.9 nM
10 | Cc1ccc(-c2cc([C@@H]3C4CCC(C[C@@H]3c3ccc(Cl)cc3)N4C)on2)cc1 (some centres unmarked) [RTI-4229-336] | 4.09 nM | 5740 nM | 1710 nM | –
11 | CN1C2CCC1C(C(=O)OC1CC1)C(c1ccc(I)cc1)C2 (centres unmarked) [RTI-4229-191] | 0.61 nM | – | 102 nM | IC50 (serotonin transporter; [7]): 15.5 nM
12 | CN1C2CCC1[C@@H](c1cc(-c3ccc(F)cc3)no1)[C@@H](c1ccc(Cl)cc1)C2 (some centres unmarked) [RTI-4229-347] | 1.86 nM | 7260 nM | 918 nM | –
13 | CNC[C@H]1[C@@H](c2ccc(C)cc2)C[C@@H]2CC[C@H]1N2C [RTI-164] | – | – | – | IC50 (dopamine transporter [1]; [8]): 13.6 ± 2.03 nM; IC50 (serotonin transporter; [9]): 2250 ± 94 nM; IC50 [3, 10]: 280 ± 19 nM
14 | Cc1cccc(OC(=O)C2C(c3ccc(Cl)cc3)CC3CCC2N3C)c1 (centres unmarked) [RTI-4229-203] | 9.37 nM | – | 2740 nM | IC50 (serotonin transporter; [7]): 2150 nM
15 | COC(=O)OCC1C(c2ccc(Cl)cc2)CC2CCC1N2C (centres unmarked) [RTI-4229-145] | 9.6 nM | 2930 nM | 1480 nM | IC50 (dopamine transporter [1]; [8]): 9.6 ± 0.42 nM; IC50 (serotonin transporter; [9]): 2930 ± 181 nM; IC50 [3, 10]: 1480 ± 96 nM
16 | CC(C)OC(=O)C1C(c2ccc(I)cc2)CC2CCC1N2C (centres unmarked) [RTI-4229-121] | 0.43 nM | 55.8 nM | 285 nM | –
17 | COC(=O)CCN1C2CCC1C(C(=O)OC)C(c1ccc(Cl)cc1)C2 (centres unmarked) [RTI-4229-252] | 2.56 nM | 35.2 nM | 125 nM | –
18 | C/C=C/c1ccc(C2CC3CCC(C2C(=O)OC)N3C)cc1 (centres unmarked) [RTI-4229-296] | 5.29 nM | – | 1590 nM | IC50 (serotonin transporter; [7]): 11.4 nM
19 | CC1C(c2ccc(Cl)cc2)CC2CCC1N2C (centres unmarked) [RTI-4229-139] | 1.67 nM | 85 nM | 56.9 nM | IC50 (dopamine transporter [1]; [8]): 1.87 ± 0.13 nM; IC50 (serotonin transporter; [9]): 85 ± 9.3 nM; IC50 [3, 10]: 57 ± 2.6 nM
20 | COC(=O)C1C2CCC(CC1c1ccc(C)cc1)N2 (centres unmarked) [RTI-4229-305] | 1.24 nM | 1.59 nM | 21.8 nM | –
21 | CN1[C@H]2CC[C@@H]1[C@@H](C(=O)O)[C@@H](c1ccc(I)cc1)C2 [RTI-102] | – | – | – | IC50 (dopamine transporter [1]; [8]): 474 ± 57 nM; IC50 (serotonin transporter; [9]): 1930 ± 120 nM; IC50 [3, 10]: 43400 nM

Row | SMILES | IC50 (dopamine transporter [1]; [4]) | IC50 (serotonin transporter; [5]) | IC50 [3, 6] | other results
22 | COC(=O)[C@@H]1C2CCC(C[C@@H]1c1ccc(Cl)c(C)c1)N2C (some centres unmarked) [RTI-4229-112] | 0.82 nM | 10.5 nM | 36.2 nM | –
23 | CN1C2CCC1C(c1ccccc1)C(c1ccccc1)C2 (centres unmarked) [RTI-4229-348] | 28.2 nM | – | 2670 nM | IC50 (serotonin transporter; [7]): 34700 nM
24 | CC(C)c1noc(C2C(c3ccc(Cl)cc3)CC3CCC2N3C)n1 (centres unmarked) [RTI-4229-154] | 6 nM | 3460 nM | 135 nM | –
25 | CN1[C@H]2CC[C@@H]1[C@@H](C(=O)O)[C@@H](c1ccc(F)cc1)C2 [RTI-104] | – | – | – | IC50 (dopamine transporter [1]; [8]): 2740 ± 141 nM; IC50 (serotonin transporter; [9]): > 100 nM; IC50 [3, 10]: > 100000 nM
26 | C/C=C\c1ccc(C2C[C@H]3CCC(C2C(=O)OC)N3C)cc1 (some centres unmarked) [RTI-4229-304] | 15 nM | 7.09 nM | 2800 nM | –
27 | Cc1noc(C2C(c3ccccc3)CC3CCC2N3C)n1 (centres unmarked) [RTI-4229-87] | 204 nM | 28400 nM | 35800 nM | –
28 | COC(=O)C1C2CCC(CC1c1ccc(Cl)cc1)N2 (centres unmarked) [RTI-4229-110] | 0.62 nM | – | 5.45 nM | IC50 (serotonin transporter; [7]): 4.13 nM
29 | CN1C2CCC1[C@@H](c1cc(-c3ccc(Cl)cc3)no1)[C@@H](c1ccc(Cl)cc1)C2 (some centres unmarked) [RTI-4229-345] | 6.42 nM | > 76000 nM | 5290 nM | –
30 | Cc1ccc([C@H]2C[C@@H]3CC[C@H]([C@H]2C#N)N3C)cc1 [RTI-158, 3β-(4-Methylphenyl)-tropane-2β-nitrile Hydrochloride] | – | – | – | IC50 (dopamine transporter [1]; [8]): 57 ± 7.3 nM; IC50 (serotonin transporter; [9]): 5100 ± 315 nM; IC50 [3, 10]: 1620 ± 136 nM
31 | O=C1CCN2C3CCC2C1C(c1ccc(Cl)cc1)C3 (centres unmarked) [RTI-4229-243] | 129 nM | 156 nM | – | IC50 ([3]; NEN=[3H] nisoxetine, read-out: NEN IC50 for inhibition of radioligand binding): 540 nM
32 | CN1C2CCC1C(c1nc(-c3ccc(Br)cc3)no1)C(c1ccc(Cl)cc1)C2 (centres unmarked) [RTI-4229-144] | 3.44 nM | 106 nM | 1820 nM | –
33 | CCc1ccc(C2CC3CCC(C2C(=O)OC)N3C)cc1 (centres unmarked) [RTI-4229-287] | 325 nM | 1690 nM | 17800 nM | –
34 | CN1[C@H]2CC[C@@H]1[C@@H](C(=O)O)[C@@H](c1ccc(Br)cc1)C2 [RTI-103] | – | – | – | IC50 (dopamine transporter [1]; [8]): 278 ± 43 nM; IC50 (serotonin transporter; [9]): 3070 ± 208 nM; IC50 [3, 10]: 17400 nM
35 | C=C(C)C1C(c2ccc(Cl)cc2)CC2CCC1N2C (centres unmarked) [RTI-4229-230] | 1.26 nM | 57.4 nM | 141 nM | IC50 (dopamine transporter [1]; [8]): 1.28 ± 0.17 nM; IC50 (serotonin transporter; [9]): 57 ± 50 nM; IC50 [3, 10]: 141 ± 18 nM
36 | Cc1ccc([C@H]2C[C@@H]3CC[C@H]([C@H]2CN)N3C)cc1 [RTI-131] | – | – | – | IC50 (dopamine transporter [1]; [8]): 10.5 ± 1.7 nM; IC50 (serotonin transporter; [9]): 855 ± 52 nM; IC50 [3, 10]: 120 ± 20 nM
37 | Cc1ccc(C2CC3CCC(C2c2ccccc2)N3C)cc1 (centres unmarked) [RTI-4229-422] | 1.96 nM | 1100 nM | 6090 nM | –
38 | CCc1ccc(C2CC3CCC(C2C(=O)OC)N3C)cc1I (centres unmarked) [RTI-4229-295] | 21.3 nM | 2.96 nM | 1350 nM | –
39 | CCc1cc([C@@H]2C3CCC(C[C@@H]2c2ccc(Cl)cc2)N3C)on1 (some centres unmarked) [RTI-4229-334] | 0.5 nM | 3090 nM | 120 nM | –
40 | CN1C2CCC1C(C(=O)Oc1ccccc1)C(c1ccc(Cl)cc1)C2 (centres unmarked) [RTI-4229-113] | 1.98 nM | – | 2960 nM | IC50 (serotonin transporter; [7]): 2330 nM
41 | CN1C2CCC1C(C(=O)Oc1ccccc1)C(c1ccc(Cl)cc1)C2 (centres unmarked) [RTI-4229-122] | 1.5 nM | 184 nM | 3790 nM | –
42 | Cc1noc([C@@H]2C(c3ccccc3)CC3CCC2N3C)n1 (some centres unmarked) [RTI-4229-124] | 1030 nM | 33100 nM | 71000 nM | –
